# Laboratory results published in patent US20220023289A1, “Application Of Pyrroloquinoline Quinone In Preparation Of Medicament Used For Preventing And Treating Acute Altitude Sickness And Acute Altitude Hypoxia Injury” (priority 2018, published 2022).
# Columns and labels:
# [1] = test system: rats exposed to acute altitude hypoxia; assay: Liver function of rats exposed to acute altitude hypoxia; type: in vivo, Wistar rat
# Method: Select healthy Wistar rats weight 160-200 g, half female and half male. After feeding for 3 days, these Wistar rats are randomly divided into ten groups according to their body weight, each group has 16±2 rats. The groups are divided as follows: five groups of the hypoxic exposure drug test group, respectively, are given 0.91 mg/kg, 1.83 mg/kg, 3.66 mg/kg, 7.31 mg/kg, and 14.63 mg/kg drugs. […] After continuous intragastric administration for 7 days, the animals in the hypoxic exposure group are simultaneously put into the decompression and hypoxia compound experimental chamber, the hatch is closed, and the pressure is reduced at a speed of 10 m/s. After being raised to an altitude of 6000 m and maintained for 8 hours, the speed in 10 m/s drops is reduced to normal altitude, open the hatch, and then take out the animal, collect blood samples (after standing for 1 hour, the supernatant is centrifuged and stored at −20° C.), and liver tissue samples. Detection indicator includes body weight, serum blood glucose, ATP, lactic acid, endothelin, nitric oxide, SOD, CO, MDA related to oxidative stress, and total protein, albumin, triglycerides, total cholesterol, high-density lipoprotein cholesterol, low-density lipoprotein cholesterol, glutamic pyruvic transaminase, total bilirubin, gluamic oxalacetic transaminase, serum urea nitrogen, creatinine, uric acid, lactate dehydrogenase, creatine kinase, α-hydroxybutyrate dehydrogenase; liver ATP, hepatic glycogen. Except that the formal oxygen control animal group is not put into the decompression and hypoxia compound experimental chamber, other experimental conditions and detection indicators are the same.
# Measure blood glucose, total protein, albumin, triglycerides, total cholesterol, high-density lipoprotein cholesterol, low-density lipoprotein cholesterol, glutamic-pyruvic transaminase, total bilirubin, glutamic oxalacetic transaminase, serum urea nitrogen, creatinine, uric acid, lactate dehydrogenase, creatine kinase, α-hydroxybutyrate dehydrogenase, blood homocysteine by using an automatic blood biochemical analyzer.
# [2] = test system: rats with acute altitude hypoxia injury; assay: Oxidative stress indexes of rats with acute altitude hypoxia injury; type: in vivo, Wistar rat
# Excerpt: Operate according to the instructions, and then measure the absorbance value of each tube, and afterwards calculate the content of malondialdehyde in the sample to be tested according to the formula. […] The latter oxidizes hydroxylamine to form nitrite. It appears purplish red under the action of chromogenic agent. Measure its absorbance by a visible light spectrophotometer. When the measured sample contains superoxide dismutase, it has specific inhibitory effect on superoxide anion free radicals, make formed nitrite reduced. […] The superoxide dismutase activity in the tested sample can be calculated by formula calculation. […] The latter can form a stable complex with phenanthrophins and measure its antioxidant capacity by colorimetry. Operate according to the kit instructions, measure the absorbance of each tube at a wavelength of 520 nm, and then calculate the total antioxidant capacity in the sample to be tested according to the formula.
# [3] = test system: rats exposed to acute altitude hypoxia; assay: Endothelial function (serum endothelin-1, nitric oxide) in rats exposed to acute altitude hypoxia; type: in vivo, Wistar rat
# Excerpt: This method uses nitrate reductase specificity reduce NO^3− to NO^2−, and then determine the level of its concentration by displaying shades of color. Operate according to the kit instructions, measure the absorbance of each tube at a wavelength of 550 nm, and then calculate the content of nitric oxide of the sample to be tested according to the formula. To the coated microwells pre-coated with rat endothelin (endothelin-1) capture antibody, add in sequence specimens, standards, and HRP-labeled detection antibody, and then incubate and wash thoroughly. Use a substrate TMB for color development. TMB is converted into blue under the catalysis of peroxidase and converted into the final yellow color under the action of acid. The color intensity is positively correlated with the rat endothelin (endothelin-1) in the sample.
# [4] = test system: mice exposed to high altitude hypoxia; assay: Exhaustive swimming experiment in mice exposed to high altitude hypoxia (6000 m); type: in vivo, Kunming mice; settings: for Exhausted swimming survival time: 7 days
# Excerpt: Select healthy male Kunming mice weight 18-22 g.
# [5] = female rats, normoxia, 3.66 mg/kg
# [6] = male rats, hypoxia, 14.63 mg/kg
# [7] = female rats, hypoxia, 0.91 mg/kg
# [8] = female rats, hypoxia, 1.83 mg/kg
# [9] = female rats, hypoxia, 3.66 mg/kg
# [10] = female rats, hypoxia, 7.31 mg/kg
# [11] = female rats, hypoxia, 14.63 mg/kg
# [12] = female rats after acute hypoxia exposure
structure (smiles),measurement,setting,value
"O=C(O)c1cc(C(=O)O)c2c(n1)C(=O)C(=O)c1cc(C(=O)O)[nH]c1-2 [PQQ, pyrroloquinoline quinone]",effect on glutamic-pyruvic transaminase,"[1]; female rats, normoxia",no significant effect
same,Glutamic oxalacetic transaminase,[1]; [5],120.29 ± 11.90 U
same,Glutamic-pyruvic transaminase,[1]; [5],37.14 ± 4.45 U
same,"effect on serum glutamic-pyruvic transaminase, glutamic oxalacetic transaminase and total bilirubin",[1]; male rats exposed to acute hypoxia,is not found
same,Glutamic oxalacetic transaminase,"[1]; male rats, hypoxia, 0.91 mg/kg",79.17 ± 15.66 U
same,Glutamic-pyruvic transaminase,"[1]; male rats, hypoxia, 0.91 mg/kg",36.63 ± 8.30 U
same,Total bilirubin,"[1]; male rats, hypoxia, 0.91 mg/kg",0.51 ± 0.12 µmol/L
same,Glutamic oxalacetic transaminase,"[1]; male rats, hypoxia, 1.83 mg/kg",85.80 ± 13.80 U
same,Glutamic-pyruvic transaminase,"[1]; male rats, hypoxia, 1.83 mg/kg",40.63 ± 5.18 U
same,Total bilirubin,"[1]; male rats, hypoxia, 1.83 mg/kg",0.59 ± 0.12 µmol/L
same,Glutamic oxalacetic transaminase,"[1]; male rats, hypoxia, 3.66 mg/kg",99.00 ± 15.52 U
same,Glutamic-pyruvic transaminase,"[1]; male rats, hypoxia, 3.66 mg/kg",42.50 ± 4.93 U
same,Total bilirubin,"[1]; male rats, hypoxia, 3.66 mg/kg",0.60 ± 0.15 µmol/L
same,Glutamic oxalacetic transaminase,"[1]; male rats, hypoxia, 7.31 mg/kg",94.40 ± 12.28 U
same,Glutamic-pyruvic transaminase,"[1]; male rats, hypoxia, 7.31 mg/kg",43.13 ± 8.92 U
same,Total bilirubin,"[1]; male rats, hypoxia, 7.31 mg/kg",0.46 ± 0.15 µmol/L
same,Glutamic oxalacetic transaminase,[1]; [6],109.00 ± 11.68 U
same,Glutamic-pyruvic transaminase,[1]; [6],48.25 ± 8.86 U
same,Total bilirubin,[1]; [6],0.53 ± 0.15 µmol/L
same,Endo Dialdehyde,[2]; [7],15.07 ± 1.91 nmol/L
same,Superoxide dismutase,[2]; [7],66.11 ± 4.18 U/ml
same,Total antioxidants,[2]; [7],10.52 ± 1.08 U/ml
same,Endo Dialdehyde,[2]; [8],13.96 ± 1.33 nmol/L
same,Superoxide dismutase,[2]; [8],60.79 ± 2.56 U/ml
same,Total antioxidants,[2]; [8],10.06 ± 0.77 U/ml
same,Endo Dialdehyde,[2]; [9],13.73 ± 0.27 nmol/L
same,Superoxide dismutase,[2]; [9],56.82 ± 3.80 U/ml
same,Total antioxidants,[2]; [9],10.84 ± 0.47 U/ml
same,Endo Dialdehyde,[2]; [10],14.14 ± 2.68 nmol/L
same,Superoxide dismutase,[2]; [10],56.65 ± 2.97 U/ml
same,Total antioxidants,[2]; [10],10.37 ± 0.75 U/ml
same,Endo Dialdehyde,[2]; [11],14.81 ± 1.37 nmol/L
same,Superoxide dismutase,[2]; [11],56.16 ± 3.64 U/ml
same,Total antioxidants,[2]; [11],10.59 ± 1.65 U/ml
same,effect on malondialdehyde,"[2]; female rats, normoxia",can slightly increase
same,effect on serum superoxide dismutase and total antioxidants,"[2]; female rats, normoxia",no significant effects
same,Endo Dialdehyde,[2]; [5],14.39 ± 0.85 nmol/L
same,Superoxide dismutase,[2]; [5],52.21 ± 1.23 U/ml
same,Total antioxidants,[2]; [5],11.28 ± 0.83 U/ml
same,effect on serum superoxide dismutase activity,[2]; hypoxia exposed female rats,can increase
same,effect on serum total antioxidants and malondialdehyde,[2]; hypoxia exposed female rats,no significant effects
same,effect on serum superoxide dismutase activity,[2]; hypoxia exposed male rats,can increase
same,effect on serum total antioxidants and malondialdehyde,[2]; male rats,no significant effect
same,Malonaldehyde,"[2]; male rats, hypoxia, 0.91 mg/kg",2.79 ± 0.62 nmol/L
same,Superoxide dismutase,"[2]; male rats, hypoxia, 0.91 mg/kg",196.26 ± 4.15 U/ml
same,Total antioxidants,"[2]; male rats, hypoxia, 0.91 mg/kg",3.17 ± 1.40 U/ml
same,Malonaldehyde,"[2]; male rats, hypoxia, 1.83 mg/kg",2.89 ± 1.09 nmol/L
same,Superoxide dismutase,"[2]; male rats, hypoxia, 1.83 mg/kg",193.38 ± 4.53 U/ml
same,Total antioxidants,"[2]; male rats, hypoxia, 1.83 mg/kg",2.77 ± 1.10 U/ml
same,Malonaldehyde,"[2]; male rats, hypoxia, 3.66 mg/kg",3.9 ± 1.39 nmol/L
same,Superoxide dismutase,"[2]; male rats, hypoxia, 3.66 mg/kg",189.59 ± 5.46 U/ml
same,Total antioxidants,"[2]; male rats, hypoxia, 3.66 mg/kg",3.81 ± 0.97 U/ml
same,Malonaldehyde,"[2]; male rats, hypoxia, 7.31 mg/kg",3.15 ± 0.99 nmol/L
same,Superoxide dismutase,"[2]; male rats, hypoxia, 7.31 mg/kg",186.20 ± 6.32 U/ml
same,Total antioxidants,"[2]; male rats, hypoxia, 7.31 mg/kg",3.62 ± 1.94 U/ml
same,Malonaldehyde,[2]; [6],3.59 ± 1.15 nmol/L
same,Superoxide dismutase,[2]; [6],179.58 ± 6.32 U/ml
same,Total antioxidants,[2]; [6],1.49 ± 2.30 U/ml
same,effect on nitric oxide,[3]; [12],no significant effect
same,effect on serum endothelin-1 content,[3]; [12],can increase
same,Endothelin-1,[3]; [7],64.75 ± 2.72 ng/mL
same,Nitric oxide,[3]; [7],3.50 ± 1.24 µmol/L
same,Endothelin-1,[3]; [8],63.21 ± 4.33 ng/mL
same,Nitric oxide,[3]; [8],4.47 ± 1.35 µmol/L
same,Endothelin-1,[3]; [9],68.58 ± 5.38 ng/mL
same,Nitric oxide,[3]; [9],6.19 ± 2.06 µmol/L
same,Endothelin-1,[3]; [10],65.44 ± 14.06 ng/mL
same,Nitric oxide,[3]; [10],5.92 ± 2.31 µmol/L
same,Endothelin-1,[3]; [11],65.26 ± 6.60 ng/mL
same,Nitric oxide,[3]; [11],4.62 ± 3.25 µmol/L
same,effect on nitric oxide content,"[3]; female rats, normoxia",no significant effects
same,effect on serum endothelin-1 content,"[3]; female rats, normoxia",can reduce
same,Endothelin-1,[3]; [5],47.50 ± 7.31 ng/mL
same,Nitric oxide,[3]; [5],5.01 ± 1.57 µmol/L
same,effect on serum endothelin-1 and nitric oxide,[3]; hypoxia exposed male rats,no significant effects
same,Endothelin-1,"[3]; male rats, hypoxia, 0.91 mg/kg",45.35 ± 4.24 ng/mL
same,Nitric oxide,"[3]; male rats, hypoxia, 0.91 mg/kg",5.28 ± 0.71 µmol/L
same,Endothelin-1,"[3]; male rats, hypoxia, 1.83 mg/kg",42.59 ± 1.45 ng/mL
same,Nitric oxide,"[3]; male rats, hypoxia, 1.83 mg/kg",5.15 ± 2.11 µmol/L
same,Endothelin-1,"[3]; male rats, hypoxia, 3.66 mg/kg",48.14 ± 3.13 ng/mL
same,Nitric oxide,"[3]; male rats, hypoxia, 3.66 mg/kg",5.35 ± 1.35 µmol/L
same,Endothelin-1,"[3]; male rats, hypoxia, 7.31 mg/kg",43.60 ± 0.94 ng/mL
same,Nitric oxide,"[3]; male rats, hypoxia, 7.31 mg/kg",6.20 ± 2.49 µmol/L
same,Endothelin-1,[3]; [6],42.45 ± 3.84 ng/mL
same,Nitric oxide,[3]; [6],6.46 ± 1.44 µmol/L
same,start time of exhaustion swimming death,"[4]; male mice, 6000 m",delayed
same,increasing rate of survival time,"[4]; male mice, 6000 m, 1.32 mg/kg",52.49%
same,increasing rate of survival time,"[4]; male mice, 6000 m, 2.64 mg/kg",109.05%
same,increasing rate of survival time,"[4]; male mice, 6000 m, 5.28 mg/kg",32.54%
same,increasing rate of survival time,"[4]; male mice, 6000 m, 10.56 mg/kg",49.30%
same,increasing rate of survival time,"[4]; male mice, 6000 m, 21.12 mg/kg",101.47%
same,Exhausted swimming survival time,"[4]; male mice, 6000 m, 1.32 mg/kg",199.21 ± 98.54 min
same,Exhausted swimming survival time,"[4]; male mice, 6000 m, 2.64 mg/kg",273.10 ± 63.07 min
same,Exhausted swimming survival time,"[4]; male mice, 6000 m, 5.28 mg/kg",173.15 ± 116.32 min
same,Exhausted swimming survival time,"[4]; male mice, 6000 m, 10.56 mg/kg",195.04 ± 59.81 min
same,Exhausted swimming survival time,"[4]; male mice, 6000 m, 21.12 mg/kg",263.20 ± 48.27 min
same,time at which mice are completely dead,"[4]; male mice, 6000 m, each PQQ dose group",about 400 minutes
same,effect on survival time after exhausting swimming / working ability under hypoxia,[4]; mice under low oxygen exposure,can prolong the survival time of mice after exhausting swimming
